ChEMBL document CHEMBL1139123, “Rational design and synthesis of novel nucleotide anti-Giardia agents” (Bioorg Med Chem Lett, 2007)
In brackets after ≈: the same amount, converted by molar mass.

Experiments:
Giardia intestinalis [1] = assay: Antiprotozoal activity against Giardia lamblia WB6 assessed as inhibition of cyst formation at 10 uM after 4 days relative to control; format: functional; conditions: Giardia duodenalis, WB6, 96 h
[2] = Therapeutic index, ratio of IC50 for bovine MDBK cells to MIC for Giardia lamblia WB6; format: cell-based; conditions: cattle
[3] = Toxicity in bovine MDBK cells; conditions: bovine (Bos taurus)
Giardia intestinalis [4] = assay: Antiprotozoal activity against Giardia lamblia WB6 trophozoites after 48 hrs; format: functional; conditions: Giardia duodenalis, WB6, 48 h

CC(=O)N[C@@H]1[C@@H](O)[C@H](O)[C@@H](CO)O[C@@H]1CCOP(=O)(O)CC[C@H]1O[C@@H](n2ccc(=O)[nH]c2=O)[C@H](O)[C@@H]1O
inhibition at 10 µM (Giardia intestinalis [1]): 27.5%
selectivity ratio [2]: 64
IC50 [3]: 250 µM
MIC (Giardia intestinalis [4]): 3.9 µM (≈ 2.16 µg/mL)

C=CC[C@H]1O[C@H](CO)[C@@H](O)[C@H](O)[C@H]1NC(C)=O
inhibition at 10 µM (Giardia intestinalis [1]): 9.7%
selectivity ratio [2]: 17
IC50 [3]: 60 µM
MIC (Giardia intestinalis [4]): 15.6 µM (≈ 3.83 µg/mL)

CC(=O)N[C@@H]1[C@@H](O)[C@H](O)[C@@H](CO)O[C@@H]1CCO
inhibition at 10 µM (Giardia intestinalis [1]): 56.2%
selectivity ratio [2]: 32
IC50 [3]: 125 µM
MIC (Giardia intestinalis [4]): 3.9 µM (≈ 0.972 µg/mL)
